Where two headings read alike, the source gives them in different places.
How the values were obtained:
A549 cells [1] = test system: A549 cells; parameters: method as in Ata et al.; details: ref Ata et al.; cited from earlier work
NCI-H2228 (lung cancer) = details: cited from earlier work
KARPAS 299 = details: cited from earlier work
A549 cells [2] = assay: Scratch-wound assay for cell migration; format: cell-based, human; details: A549, 72 h
Experimental: After the cells reached full confluence and formed a uniform monolayer, a scratch approximately 1 mm wide was created across the cell layer using a sterile 200 μL micropipette tip. The wells were then gently washed with phosphate-buffered saline (PBS) to remove cellular debris. […] To evaluate wound closure, images of the scratch area were captured at the start of the experiment (0 h) and after 72 h of treatment. Image analysis was performed using ImageJ® software (version 1.4.3.67, Symmetry Software) to measure the wound area and assess cell migration quantitatively

[3] = test system: resistance-induced overexpressed TGF-α HGF cells; parameters: method as in PMID 31857951; details: cited from earlier work
[4] = test system: A549 lung cancer cell line; assay: MTT cytotoxicity assay; format: cell-based; details: Homo sapiens, A549, 72 h
Experimental: The A549 cell line, composed of human alveolar basal epithelial adenocarcinoma cells, was used for the in vitro evaluation. Cells were obtained from ATCC through the Faculty of Pharmacy […] University. To maintain the A549 lung cancer cell line, Roswell Park Memorial Institute (RPMI) was employed. The medium was supplemented with 2 mL of L-glutamine, 50 mL of fetal bovine serum (FBS), and 5 mL of penicillin-streptomycin. The frozen A549 cell vials, stored in liquid nitrogen at approximately -196 °C, were quickly thawed at 37 °C in a water bath. The contents were then diluted with 10 mL of pre-warmed media and then centrifuged at 1500 rpm for 10 min. After discarding the supernatant, the tube was gently agitated to disperse the cells, and fresh medium (15 mL) was added. […] Their confluency level was maintained within the ideal range of 80-90%. To assess cell viability, a 1:1 mixture of 50 μL of Trypan blue stain and 50 μL of cell solution was prepared in an Eppendorf tube. Then, 5 × 10^3 cells were inoculated into individual wells of 96-well microplates using 100 μL of medium. […] Negative control wells received 0.1% DMSO, while blank wells were filled with RPMI medium without cells. […] The absorbance of the formazan solution in each well was promptly quantified at 590 nm utilizing a 96-well plate reader manufactured by Biotech, and the IC50 values were calculated according to Equation (2).

[5] = pH 1.2 and 2.5; cited from earlier work
[6] = parameters: method as in PMID 36015320; details: cited from earlier work
[7] = test system: H460 large lung cancer cells; format: in vivo; details: H460 xenograft mice, 20 mg/kg
Experimental: This study involved 24 male BALC mice, aged 5 weeks and weighing 20 ± 2 g, housed under controlled environmental conditions (temperature: 25.2 °C, humidity: 60 ± 5%, 12 h light–dark cycle) with ad libitum access to standard rodent chow and autoclaved water. […] Human lung large-cell carcinoma (H460) cells were cultured in RPMI 1640 medium, prepared through trypsinization and centrifugation, and underwent viability testing with Trypan blue exclusion, then were suspended in ECM Matrigel®. After 21 days of immunosuppression with 5 mg/kg dexamethasone administered intraperitoneally each mouse was subcutaneously injected in the right flank with 2.5 × 10^6 viable H460 cells. Tumor growth was monitored for 14 days using caliper measurements.
To establish an immunosuppressed xenograft model, dexamethasone (5 mg/kg) was administered to all mice for 21 days to suppress their immune response (Figure S8). Following immunosuppression, 2.5 × 10^6 H460 large lung cancer cells were subcutaneously injected into the mice, and tumor growth was monitored every day.

[8] = Pharmacokinetic study in rats, LC-MS/MS of plasma; format: in vivo, Wistar rats; details: rat, 20 mg/kg oral; for AUC0-t: 20 mg/kg
Experimental: Quantification and identification of Alectinib were performed using liquid chromatography coupled with mass spectrometry (LC/MS), employing rosuvastatin as the internal standard (IS). […] Detection was carried out with an API-3000 triple quadrupole mass spectrometer (LCMS-2010A, Shimadzu, Japan) featuring an electrospray ionization (ESI) source operated in positive ion mode. […] Detection was achieved using multiple reaction monitoring (MRM) for specific m/z transitions. […] Prior to the experiment, the animals were fasted overnight with free access to water and were marked on the tail for individual identification. The rats were randomly divided into two groups. […] Blood samples were collected from the tail after warming for 30 s using a hot pad to facilitate sampling. […] Sample preparation was carried out using the liquid–liquid extraction (LLE) technique. Frozen plasma samples were thawed at room temperature, vortexed to ensure uniform mixing, and combined with 500 µL acetonitrile (ACN) as diluent, 300 µL plasma, and 50 µL rosuvastatin as the internal standard. The mixture was vortexed for 2 min, centrifuged at 4000 rpm for 15 min, and 200 µL of the supernatant was transferred into LC-MS insert vials. Subsequently, 20 µL of the processed sample was analyzed using LC-MS/MS for quantification and pharmacokinetic evaluation.

[9] = parameters: method as in PMID 36015320; details: cited from earlier work; remark: listed apart in the source
[10] = In vitro drug release, dialysis method in PBS; format: physicochemical; details: pH 6.8 PBS, 1.5% SLS, 37 °C
Experimental: In vitro drug release studies were performed using the dialysis method. A drug release study was conducted in vitro to measure the amount of drug released from the complex. […] The dissolution study was conducted using the USP II apparatus (paddle) under the following conditions: a stirring speed of 100 rpm, a temperature of 37.0 ± 0.5 °C, and volume of release media of 200 mL. The NP samples were placed in a plastic tube sealed with a dialysis membrane with a molecular weight cut-off (MWCO) of 14,000 Da, which was previously soaked in either buffer for 24 h. […] At predetermined time intervals, 1 mL aliquots were withdrawn and promptly replaced with fresh media. The collected samples were filtered by a 0.22 µm filter membrane and were subsequently injected into the HPLC system at a wavelength of 340 nm.

nB1 (neuroblastoma) = details: cited from earlier work

- AUC(0-inf) ([8]; male, Wistar, plasma): 11800 ng·h/mL
- half-life ([8]; male, Wistar, plasma): 15.4 ± 1.6 h
- k el ([8]; male, Wistar, plasma): 1.25e-05 s⁻¹
- AUC0-t ([8]; male, Wistar, plasma, po, read-out: AUC0-t): 9840 ng·h/mL
- C-max [8]: 313.83 ± 150.83 ng/mL
- T-max [8]: 9.33 ± 1.1 h
- absorption rate constant (Ka) ([8]; assumption of linear absorption): 0.43 h⁻¹
- AUC0-t ([8]; listed as Free Alectinib): 9842.03 ± 3986 ng·h/mL
- Alectinib released over 48 h [10]: 11.1% ± 0.11
SMILES: CCc1cc2c(cc1N1CCC(N3CCOCC3)CC1)C(C)(C)c1[nH]c3cc(C#N)ccc3c1C2=O.Cl [Alectinib, 9-ethyl-6,6-dimethyl-8-[4-(morpholine-4-yl)piperidin-1-yl]-11-oxo-6,11-dihydro-5H-benzo[b]carbazole-3-carbonitrile hydrochloride]
- IC50 (A549 cells [1]): 9.63 µg/mL
- IC50 (NCI-H2228 (lung cancer)): 53 nM
- IC50 (KARPAS 299): 3 nM
- scratch assay outcome in words (A549 cells [2]): completely eradicated the cells
- IC50 [3]: 38.2 nM
- IC50 [4]: 4190 nM
- stability at low pH [5]: degradation of Alectinib at low pH
- permeability [6]: 250 ×10⁻⁶ cm/s
- tumor outcome in words after 17 days of treatment [7]: minimal amount of residual tumor tissue
- tumor regression / reduction after 17 days of treatment [7]: 75%
- absolute bioavailability [9]: 37%
- IC50 (nB1 (neuroblastoma)): 4.5 nM

— paper PMC12389006, “In Vitro and In Vivo Evaluation of Alectinib-Loaded Dendrimer Nanoparticles as a Drug Delivery System for Non-Small Cell Lung Carcinoma” (Pharmaceutics, 2025)
